Experimental data taken from patent publication EP0515141A1, “Novel process for the preparation of 8A-aza-8A-homoerythromycin cyclic lactams” (MERCK & CO. INC., priority 1991, dated 1992).
In brackets after ≈: the same amount, converted by molar mass.

Key:
Test in all cases: liquid turbidimetric microtiter MIC assay
Assay type in all cases: cell-based
[1] = system: Enterococcus faecium MB 5416; settings: MB5416, brain heart infusion broth
Excerpt: (§1) The antibacterial activities of compound (III) against a panel of aerobic Gram positive and negative bacteria is shown in the following Table. The assay employs a liquid turbidimetric microtiter method for the determination of the minimum inhibitory concentration (MIC) in brain heart infusion broth. […] The MIC is generally not an absolute value but rather a concentration ranged that falls within a two-fold dilution limit. Generally twelve two-fold dilutions of the test compound are employed with the initial concentration set at 128 mcg/ml.

[2] = system: Klebsiella pneumoniae MB 4005; settings: MB4005, brain heart infusion broth
Excerpt: as §1

[3] = system: Staphylococcus aureus MB 2865; settings: MB2865, brain heart infusion broth
Excerpt: as §1

[4] = system: Staphylococcus haemolyticus MB 5412; settings: MB5412, brain heart infusion broth
Excerpt: as §1

[5] = system: Enterococcus faecalis MB 5407; settings: MB5407, brain heart infusion broth
Excerpt: as §1

[6] = system: Pseudomonas stutzeri MB 1231; settings: Stutzerimonas stutzeri, MB1231, brain heart infusion broth
Excerpt: as §1

[7] = system: Steptococcus viridans CL 2943; settings: brain heart infusion broth
Excerpt: as §1

[8] = system: Staphylococcus epidermidis MB 5414; settings: MB5414, brain heart infusion broth
Excerpt: as §1

[9] = system: Streptococcus pyogenes MB 5406; settings: MB5406, brain heart infusion broth
Excerpt: as §1

[10] = system: Streptococcus agalactiae CL 1343; settings: CL1343, brain heart infusion broth
Excerpt: as §1

[11] = system: Yersinia enterocoltica CL 1598; settings: CL1598, brain heart infusion broth
Excerpt: as §1

[12] = system: Escherichia coli MB 2884; settings: MB2884, brain heart infusion broth
Excerpt: as §1

[13] = system: Streptococcus pyogenes MB 2874; settings: MB2874, brain heart infusion broth
Excerpt: as §1

[14] = system: Escherichia coli MB 4926; settings: MB4926, brain heart infusion broth
Excerpt: as §1

[15] = system: Streptococcus pneumoniae CL 2883; settings: CL2883, brain heart infusion broth
Excerpt: as §1

## CC[C@H]1OC(=O)[C@H](C)[C@@H](O[C@H]2C[C@@](C)(OC)[C@@H](O)[C@H](C)O2)[C@H](C)[C@@H](O[C@@H]2O[C@H](C)C[C@H](N(C)C)[C@H]2O)[C@](C)(O)C[C@@H](C)NC(=O)[C@H](C)[C@@H](O)[C@]1(C)O [(III), 8a-aza-8a-homoerythromycin A]
[1]
  MIC: ≤ 0.06 µg/mL
[2]
  MIC: 64 µg/mL (≈ 85.5 µM)
[3]
  MIC: 1 µg/mL (≈ 1.34 µM)
[4]
  MIC: 2 µg/mL (≈ 2.67 µM)
[5]
  MIC: 16 µg/mL (≈ 21.4 µM)
[6]
  MIC: 0.12 µg/mL (≈ 0.16 µM)
[7]
  MIC: 4 µg/mL (≈ 5.34 µM)
[8]
  MIC: 2 µg/mL (≈ 2.67 µM)
[9]
  MIC: 128 µg/mL (≈ 171 µM)
[10]
  MIC: 0.25 µg/mL (≈ 0.334 µM)
[11]
  MIC: 64 µg/mL (≈ 85.5 µM)
[12]
  MIC: 32 µg/mL (≈ 42.7 µM)
[13]
  MIC: ≤ 0.06 µg/mL
[14]
  MIC: 4 µg/mL (≈ 5.34 µM)
[15]
  MIC: ≤ 0.06 µg/mL
